According to ChEMBL document CHEMBL5727333, “3-amino-1,5,6,7-tetrahydro-4H-indol-4-ones” (2019):

Biological target: Mitotic checkpoint serine/threonine-protein kinase BUB1 (Homo sapiens, UniProt O43683)
Assay: Kinase Assay: In a typical assay 11 different concentrations of each compound (0.1 nM, 0.33 nM, 1.1 nM, 3.8 nM, 13 nM, 44 nM, 0.15 μM, 0.51 μM, 1.7 μM, 5.9 μM and 20 μM) were tested in duplicate within the same microtiter plate. To this end, 100-fold concentrated compound solutions (in DMSO) were previously prepared by serial dilution (1:3.4) of 2 mM stocks in a clear low volume 384-well source microtiter plate (Greiner Bio-One, Frickenhausen, Germany), from which 50 nl of compounds were transferred into a black low volume test microtiter plate from the same supplier. […] The resulting mixture (5 μL final volume) was incubated at 22° C. during 60 min., and the reaction was stopped by the addition of 5 μL of an aqueous EDTA-solution (50 mM EDTA, in 100 mM HEPES pH 7.5 and 0.2% (w/v) bovine serum albumin) which also contained the TR-FRET detection reagents (0.2 μM streptavidin-XL665 [Cisbio Bioassays, Codolet, France] and 1 nM anti-phosho-Serine antibody [Merck Millipore, cat. #35-002] and 0.4 nM LANCE EU-W1024 labeled anti-mouse IgG antibody [Perkin-Elmer, product no. AD0077, alternatively a Terbium-cryptate-labeled anti-mouse IgG antibody from Cisbio Bioassays can be used]). The stopped reaction mixture was further incubated 1 h at 22° C. in order to allow the formation of complexes between peptides and detection reagents.

Mitotic checkpoint serine/threonine-protein kinase BUB1, sequence (O43683 whole entry): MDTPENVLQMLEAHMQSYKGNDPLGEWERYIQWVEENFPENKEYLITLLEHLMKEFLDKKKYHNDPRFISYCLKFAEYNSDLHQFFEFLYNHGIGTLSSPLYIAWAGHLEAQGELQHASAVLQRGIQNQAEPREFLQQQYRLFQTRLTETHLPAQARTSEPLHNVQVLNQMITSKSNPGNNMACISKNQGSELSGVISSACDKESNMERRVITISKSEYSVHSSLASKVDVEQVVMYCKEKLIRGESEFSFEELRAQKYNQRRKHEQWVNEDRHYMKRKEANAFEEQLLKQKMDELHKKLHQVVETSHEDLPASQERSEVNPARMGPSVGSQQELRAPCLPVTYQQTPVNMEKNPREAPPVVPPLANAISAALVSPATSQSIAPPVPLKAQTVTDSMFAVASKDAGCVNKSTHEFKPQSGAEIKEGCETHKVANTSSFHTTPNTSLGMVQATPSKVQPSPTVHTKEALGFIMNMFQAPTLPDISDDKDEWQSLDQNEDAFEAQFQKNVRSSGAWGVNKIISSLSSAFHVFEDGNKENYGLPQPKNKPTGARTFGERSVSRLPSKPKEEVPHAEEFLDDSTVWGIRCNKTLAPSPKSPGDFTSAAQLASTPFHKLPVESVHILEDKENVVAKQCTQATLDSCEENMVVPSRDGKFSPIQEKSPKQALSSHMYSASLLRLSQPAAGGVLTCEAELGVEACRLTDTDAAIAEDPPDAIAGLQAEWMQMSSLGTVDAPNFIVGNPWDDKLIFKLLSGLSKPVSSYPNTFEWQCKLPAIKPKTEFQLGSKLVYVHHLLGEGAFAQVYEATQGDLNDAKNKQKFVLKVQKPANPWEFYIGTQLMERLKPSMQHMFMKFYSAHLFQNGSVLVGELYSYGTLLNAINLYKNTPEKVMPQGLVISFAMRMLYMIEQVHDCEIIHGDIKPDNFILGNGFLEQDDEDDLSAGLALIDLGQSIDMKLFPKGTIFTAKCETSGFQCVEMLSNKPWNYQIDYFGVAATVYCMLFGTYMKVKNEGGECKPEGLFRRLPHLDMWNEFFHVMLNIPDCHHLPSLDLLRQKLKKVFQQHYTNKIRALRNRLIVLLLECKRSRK

Going from `CC(=O)Nc1cc(-c2[nH]c3c(c2Nc2ccc(F)cc2)C(=O)CCC3)ccn1` to `CS(=O)(=O)Nc1cc(-c2[nH]c3c(c2Nc2ccccc2)C(=O)CCC3)ccn1`, the IC50 rises from 58.9 nM to 6660 nM (110-fold). The first is the more potent here.

`CC1(C)CC(=O)c2c([nH]c(-c3ccnc(Nc4cccc(F)c4)c3)c2Nc2cccc(F)c2)C1` and `CC1(C)CC(=O)c2c([nH]c(-c3ccnc(NS(C)(=O)=O)c3)c2Nc2ccccc2)C1` are within 1.5-fold of each other in IC50: 497 nM for the first, 733 nM for the second.

Going from `Cc1cccc(Nc2c(-c3ccncc3)[nH]c3c2C(=O)CC(C)(C)C3)c1F` to `CC(C)Oc1cccc(Nc2c(-c3ccncc3)[nH]c3c2C(=O)CC(C)(C)C3)c1`, the IC50 rises from 85.5 nM to 1170 nM (14-fold).

Compared with `CC1(C)CC(=O)c2c([nH]c(-c3ccnc(Cl)c3)c2Nc2ccccc2)C1`, `CC1(C)CC(=O)c2c([nH]c(-c3ccnc(Br)c3)c2Nc2ccccc2)C1` is 1.9-fold higher in IC50: 53.6 nM for the first, 99.8 nM for the second. The first is the more potent here.
